Patent publication US4757084A, “2,5-diaryl tetrahydrothiophenes and analogs thereof as PAF-antagonists” (Merck & Co., Inc., priority 1985, dated 1988)

Assays:
[1] = biological target: PAF specific receptor binding site on rabbit platelet plasma membranes (Oryctolagus cuniculus, UniProt G1TEI7); test: Inhibition of 3H-PAF binding to rabbit platelet plasma membrane; details: for inhibition at 0.03 µM: .03 μM; for inhibition at 0.1 µM: .1 μM; for inhibition at 0.3 µM: .3 μM
Procedure: A. In Vitro Assay: In vitro, they inhibit PAF-induced functions in both the cellular and tissue levels by disturbing the PAF binding to its specific receptor site. The ability of a compound of formula (I) to inhibit the PAF binding to its specific receptor binding site on rabbit platelet plasma membranes was measured by an assay recently developed by us.
The inhibition of H^3 -PAF binding to the rabbit platelet plasma membrane by a PAF-antagonist of Formula (I) was determined by a method employing isotopic labeling and filtration techniques. Generally, a series of Tris-buffered solutions of the selected antagonist at predetermined concentrations were prepared. Each of these solutions contains 1 pmole of ^3 H-PAF, a known amount of the test antagonist, and a sufficient amount of the pH 7.5 Tris-buffer solution (10 mM Tris, 0.25% bovine serum albumin, and 150 mM NaCl per ml water) to make the final volume of 1 ml. After adding into a set of test tubes each with 100 μg of the platelet plasma membrane suspension (S. B. Hwang, et al., Biochemistry, 1983) and one of the Tris-buffer solutions described above, the resulting mixture in each test tube was incubated at 0° C. for about one hour or until the reaction was complete. Two control samples, one of which (C1)contains all the ingredients described above except the antagonist and the other (C2) contains C1 plus a 1000-fold excess of unlabeled PAF, were also prepared and incubated simultaneously with the test samples. After the incubation was completed, the contents of each test tube were filtered under vacuo through a Whatman GF/C fiberglass filter and the residue washed rapidly several times with a total of 20 ml cold (0°-5° C.) Tris-buffer solution. Each washed residue was then suspended in 10 ml scintillation solution (Aquasol 2, New England Nuclear, Connecticut) and the radioactivity was counted in a Packard Tri-Carb 460CD Liguid Scintillation System. Defining the counts from a test sample as "Total binding with antagonist"; the counts from the control sample C1, as "Total binding C1 "; and the counts from the control sample C2 as "nonspecific binding C2 ", the percent inhibition of each test antagonist can be determined by the following equation: [formula]

[2] = system: PAF-induced symptoms (increased vascular permeability, increased degranulation); test: Oral activity in inhibiting PAF-induced symptoms in rats; type: in vivo; details: rat
Description: B. In vivo Assay: Protocol for Assay of Oral Activity of PAF-antagonists in inhibiting PAF-induced symptoms including decreased arterial blood flow, increased vascular permeability and increased degranulation in rats
Animals: Female, Wiston rats, 190-220 g
2. Weigh the rats the morning after fasting.
3. Suspend a test compound in 0.5% methylcellulose with 12 ounce hand homogenizer or a sonicator if necessary to yield a fine suspension. […]
4. One hour after dosing, anesthetize the rat with sodium Nembutal (i.p.).
5. One and a quarter hours after dosing, cannulate surgically the left femoral vein and artery of the rat.
6. One and a half hours after dosing, infuse through cannulated vein 0.5 nannomoles (n moles) per 200 g body weight of the rat. Take blood samples from the cannulated femoral artery at 1.5, 3, 5, 8, 11, 15, 20 25 and 30 minute intervals. After the beginning of the PAF infusion as well as just before the PAF infusion, measure the following three parameters for each blood sample:
(§1) (a) the arterial blood flow rate: determined by measuring the time to fill a pre-calibrated 14 μl capillary tube;
(b) the vascular permeability: measured by calculating the increased hematocrit which results from loss of plasma from the circulation to extra-vascular spaces.
(c) the circulatory degranulation: determined by assaying the increased plasma level of N-acetylglucosaminidase, a marker lysosomal enzyme.
7. Determine the percent change in each parameter of a blood sample at each post-PAF interval including the 30 minute interval, relative to the pre-PAF blood values.
(§2) 8. Calculate the percent inhibition by the formula: [formula]

[3] = system: soluble immune complex induced effects; test: Method B: oral activity in inhibiting soluble immune complex induced effects in rats; type: in vivo; details: rat, 50 mg/kg
Procedure: Method B: Protocol for Assay of Oral Activity of PAF antagonists in inhibiting soluble immune complex induced effects including decreased arterial blood flow, increased vascular permeability and increased degranulation in rats.
Animals: Female, wistar rats, 190-22-g
2. Weigh the rats the morning after fasting
3. Suspend a test compound in 0.5% methylcellulose with 12 ounce hand homogenizer to yield fine suspension. Administer orally each of the rats with 2 ml of suspension such that the rat received a predetermined amount of the compound varying between 2 and 50 mg compound per kg bodyweight of the rat.
4. Soluble immune complexes (I.C.) were prepared by mixing 2.4 mg human serum albumin (HSA) with 51 mg of the Igby fraction from rabbit anti-HSA antiserum in a final volume of 3.4 ml and incubating at 37° C. for 1 hour. This ratio of HSA to antibody was previously determined to be in slight antigen excess of equivalence and to result in soluble I.C. Following 37° C. incubation, the I.C. was centrifuged at 10,000 xg, 5 minute and the resulting superinstant containing the soluble I.C. stored on ice.
5. Two and one-half hours after dosing, anesthetize the rat with sodium Nembutal (i.P.)
6. Two and three-quarters hours after dosing, cannulate surgically the left femoral vein and artery of the rat. Take a blood sample from the cannulated femoral artery before the I.C. infusion and 1.5, 3, 5, 8, 11, 15, 20, 25 and 30 minutes after the I.C. infusion. Measure the following three parameter for each blood sample:
as §1
(b) the vascular permeability: measured by calculating the increased hematocit which results from loss of plasma from the circulation to extra-vascular spaces.
(c) the circulatory degranulation: determined by assaying the increased plasma level of N-acetylglucosaminidase, a marker lysopomal enzyme.
as §2

Sequence of PAF specific receptor binding site on rabbit platelet plasma membranes (G1TEI7 1-342): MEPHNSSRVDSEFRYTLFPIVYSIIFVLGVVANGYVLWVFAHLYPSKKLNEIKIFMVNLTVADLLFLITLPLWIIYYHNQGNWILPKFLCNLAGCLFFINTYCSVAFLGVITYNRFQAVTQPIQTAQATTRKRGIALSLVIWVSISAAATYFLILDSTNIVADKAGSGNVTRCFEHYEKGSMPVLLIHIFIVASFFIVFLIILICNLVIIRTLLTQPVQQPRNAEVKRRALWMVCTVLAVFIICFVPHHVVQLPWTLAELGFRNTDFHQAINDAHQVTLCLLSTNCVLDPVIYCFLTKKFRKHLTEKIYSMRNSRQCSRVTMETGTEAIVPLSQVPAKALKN

SMILES	inhibition at 1 µM [1] [%]	inhibition at 5 µM [1] [%]	inhibition at 0.03 µM [1] [%]	inhibition at 0.1 µM [1] [%]	inhibition at 0.3 µM [1] [%]	PAF-antagonist activity (in words) [1]	% inhibition A (increased vascular permeability) ([2]; 20 mg/kg) [%]	% inhibition B (increased degranulation) ([2]; 20 mg/kg) [%]	further results
COc1ccc([C@H]2S[C@@H](c3ccc(OC)c(OC)c3)[C@H](C)[C@H]2C)cc1OC (relative stereo)	53	82	–	–	–	–	–	–	–
COc1cc([C@H]2CC[C@H](c3cc(OC)c(OC)c(OC)c3)S2)cc(OC)c1OC (relative stereo) [trans-2,5-bis (3,4,5-trimethoxyphenyl) tetrahydrothiophene]	100	–	69	95	100	most active PAF-antagonists	85	83	% inhibition A (increased vascular permeability) ([2]; 1 mg/kg): 20%; % inhibition B (increased degranulation) ([2]; 1 mg/kg): 49%; % inhibition A (increased vascular permeability) ([2]; 5 mg/kg): 58%; % inhibition B (increased degranulation) ([2]; 5 mg/kg): 60%; % inhibition A (increased vascular permeability) ([2]; 40 mg/kg): 81%; % inhibition B (increased degranulation) ([2]; 40 mg/kg): 81%; % inhibition of decreased arterial blood flow [3]: 40%; % inhibition of increased degranulation [3]: 40%; % inhibition of increased vascular permeability [3]: 73%
COc1cc([C@H]2CC[C@H](c3cc(OC)c(OC)c(OC)c3)S2)cnc1OC (relative stereo) [trans-2-(3,4,5-trimethoxyphenyl)-5-(5,6-dimethoxy-3-pyridyl)tetrahydrothiophene]	80	96	–	–	–	most active PAF-antagonists	–	–	–

More lines, main results first:

inhibition at 1 µM [1] [%]	inhibition at 5 µM [1] [%]	inhibition at 0.03 µM [1] [%]	inhibition at 0.1 µM [1] [%]	inhibition at 0.3 µM [1] [%]	PAF-antagonist activity (in words) [1]	SMILES	% inhibition A (increased vascular permeability) ([2]; 20 mg/kg) [%]	% inhibition B (increased degranulation) ([2]; 20 mg/kg) [%]	further results
82	–	30	68	43	–	COc1ccc([C@H]2S[C@H](c3ccc(OC)c(OC)c3)[C@H](C)[C@H]2C)cc1OC (relative stereo)	–	–	–
100	–	31	43	83	–	COc1ccc([C@H]2CC[C@H](c3ccc(OC)c(OC)c3)S2)cc1OC (relative stereo) [H H 3,4-dimethoxyphenyl same as Ar trans, trans-2,5-bis-(3,4-dimethoxyphenyl)tetrahydrothiophene]	–	–	–
62	–	–	25	41	–	COc1ccc([C@@H]2CC[C@H](c3ccc(OC)c(OC)c3)S2)cc1OC [H H 3,4-dimethoxyphenyl same as Ar cis, cis-2,5-bis-(3,4-dimethoxyphenyl)tetrahydrothiophene]	41	35	–
